Experimental data published in PubChem BioAssay (NCI).
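The compound was tested at five concentrations on cells cultured in 96-well plates, with a 48-hour exposure period. Abbreviation: GI50, concentration required for 50% inhibition of growth. TGI denotes the concentration required for complete inhibition of growth.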 Where a SMILES comes first, the peptide text is derived from it. [ ]: non-standard residue; d: D form. The star is where a group is joined. Phe(4-NO2) = N[CH](Cc1ccc([N+](=O)[O-])cc1)C(=O)O; Cbz = O=C(OCc1ccccc1)*

What was measured:
Assay in all cases: inhibition of tumour cell growth, NCI panel, 48 h
[1] = tested on: MALME-3M melanoma
[2] = tested on: A498 renal
[3] = tested on: HCT-116 colon
[4] = tested on: NCI-H522 lung
[5] = tested on: SK-MEL-5 melanoma
[6] = tested on: SF-268 CNS
[7] = tested on: HCC-2998 colon
[8] = tested on: 786-0 renal
[9] = tested on: SNB-19 CNS
[10] = tested on: SF-295 CNS
[11] = tested on: CAKI-1 renal
[12] = tested on: SW-620 colon
[13] = tested on: HS 578T breast
[14] = tested on: EKVX NSCLC
[15] = tested on: HL-60(TB) leukemia
[16] = tested on: NCI/ADR-RES ovarian
[17] = tested on: M14 melanoma

| Structure (SMILES) | TGI [1] [µM] | TGI [2] [µM] | TGI [3] [µM] | TGI [4] [µM] | TGI [5] [µM] | TGI [6] [µM] | TGI [7] [µM] | TGI [8] [µM] | TGI [9] [µM] | TGI [10] [µM] | TGI [11] [µM] | TGI [12] [µM] | TGI [13] [µM] | TGI [14] [µM] | TGI [15] [µM] | TGI [16] [µM] | TGI [17] [µM] | GI50 [1] [µM] | GI50 [11] [µM] |
| --- | --- | --- | --- | --- | --- | --- | --- | --- | --- | --- | --- | --- | --- | --- | --- | --- | --- | --- | --- |
| Cc1c(C#N)c(N)[nH]c(=S)c1C#N | > 100 | > 100 | > 100 | > 100 | > 100 | > 100 | > 100 | > 100 | > 100 | > 100 | > 100 | > 100 | > 100 | > 100 | > 100 |  |  |  |  |
| CC(C)(C)OC(=O)[C@@H]1CCC(=S)N1Cc1ccccc1 | > 100 | > 100 | > 100 | > 100 | > 100 |  | > 100 | > 100 | > 100 | > 100 | > 100 | > 100 |  | > 100 |  | > 100 | > 100 |  |  |
| N#CC(/C(=N\NC(=O)c1ccncc1)C(=O)Nc1ccc([N+](=O)[O-])cc1[N+](=O)[O-])c1nc(-c2ccc(Br)cc2)cs1 (stereo not given) | > 100 | > 100 | > 100 |  | > 100 | > 100 | > 100 | > 100 | > 100 | > 100 | > 100 | > 100 |  | > 100 | > 100 |  | > 100 |  |  |
| CC(C)C1C(=O)NC(CO)Cc2c[nH]c3c(C(c4c[nH]c5ccccc45)C(O)CO)ccc(c23)N1C (stereo not given) |  | > 100 | > 100 | > 100 | > 100 | > 100 | 18.5 | > 100 | > 100 | > 100 |  | > 100 |  | > 100 | > 100 |  | > 100 |  |  |
| O=c1c(-c2ccccc2)c2oc(c1-c1ccccc1)CS(=O)(=O)CCC2 | > 100 |  | 26.3 | 22.7 | 85 | 83.3 |  | 44.1 | > 100 | > 100 | 96.9 | > 100 |  | > 100 | > 100 |  |  |  |  |
| CCOC(=O)/C(C=Nc1c(C)n(C)n(-c2ccccc2)c1=O)=C(/O)c1ccccc1 | > 100 | > 100 | > 100 | > 100 | > 100 | > 100 | > 100 | > 100 | > 100 | > 100 | > 100 | > 100 | > 100 | > 100 | > 100 |  | > 100 |  |  |
| COc1ccc(N=Nc2c(C)c(C#N)c(=S)n(C3OC(COC(C)=O)C(OC(C)=O)C(OC(C)=O)C3OC(C)=O)c2C)cc1 (stereo not given) | > 100 |  | > 100 |  | > 100 | > 100 | > 100 | 53 | > 100 | > 100 | > 100 | > 100 | 82 |  | > 100 | > 100 | > 100 |  |  |
| CCOC(=O)CC(=O)C(=O)NNC1=NCCN1 | > 100 |  | > 100 | > 100 | > 100 | > 100 | > 100 | > 100 | > 100 | > 100 |  | > 100 | > 100 | > 100 | > 100 | > 100 | > 100 |  |  |
| CCOC(=O)CCC(NC(=O)OCc1ccccc1)C(=O)NC(CCC(=O)OCC)C(=O)NC(Cc1ccc([N+](=O)[O-])cc1)C(=O)NC(CCC(=O)OCC)C(=O)NC(CCC(=O)OCC)C(=O)OCC (stereo not given) (Cbz-E(OEt)E(OEt)[Phe(4-NO2)]E(OEt)E(OEt)-OEt; configuration not given here) | > 100 |  | > 100 | > 100 | > 100 |  |  | > 100 | > 100 | > 100 | > 100 | > 100 | > 100 | > 100 |  | > 100 |  |  |  |
| N#CC1(C#N)NC(c2cccnc2)C(C#N)(C#N)NC1c1cccnc1 (stereo not given) | > 100 | > 100 | > 100 |  | > 100 | > 100 | > 100 | > 100 |  | > 100 | > 100 | > 100 |  | > 100 | > 100 | > 100 | > 100 |  |  |
| CCOC(=O)C[C@@H](C)[C@]1(C(=O)OC)CCCC1=O | > 100 | > 100 | > 62.6 | > 100 | > 100 | > 100 | > 100 | > 100 | > 100 | > 100 | > 100 | > 100 |  | > 100 | > 100 |  | > 100 |  |  |
| O=C(/C=C/c1ccc(O)c(O)c1)OC1C[C@@](O)(C(=O)O)C[C@@H](O)[C@H]1OC(=O)/C=C/c1ccc(O)c(O)c1 (stereo not given in full) | > 100 | > 100 | > 100 | > 100 | > 100 | > 100 | > 100 | > 100 |  | > 100 |  | > 100 |  | > 100 | > 100 |  | > 100 |  |  |
| CCOC(=O)C(NC(=O)C(CCCCNP(=O)(OCC)OCC)NC(=O)C(C)NC(C)=O)C(C)C (stereo not given) | > 100 | > 100 | > 100 |  | > 100 | > 100 | > 100 | > 100 | > 100 | > 100 | > 100 | > 100 |  | > 100 | > 100 | > 100 | > 100 |  |  |
| COc1ccc(/C=N/N=C(\N)NO)c(Cl)c1O | > 100 |  | > 100 | 42.1 | 40.6 | > 100 | 40.4 | > 100 | > 100 | 22.4 | 54.8 | > 100 |  | > 100 |  |  |  |  |  |
| Cc1ccc2[nH]c3c(C)c4c(c(C)c3c2c1)CN(C)C=C4 | 4.58 |  | 10.6 | 1.38 | 2.94 | 0.975 | 3.52 | 10.5 | 1.99 | 3.73 | 5.89 | 3 |  | 10 | 23.5 |  | 13.6 | 1.72 | 1.21 |
| O=C(CSc1nnc(Cc2ccccc2)o1)Nc1cccc(Cl)c1 | > 100 | > 100 | > 100 | > 100 | > 100 | > 100 | > 100 | > 100 | > 100 | > 100 | > 100 | > 100 |  | > 100 | > 100 |  | > 100 |  |  |
| NC1OC(COC(=O)c2ccccc2)C(O)C(OC(=O)c2ccccc2)C1OC(=O)c1ccccc1 (stereo not given) | 36.3 |  | 34.2 | 58.5 | 27.5 | 67.4 |  | 30.3 | > 100 | 33.6 |  | 53.6 | 42.6 | 60.2 |  | > 100 | 58.1 |  |  |
| CC1(C)C(C#N)=[N+]([O-])C(C)(C)N1O | > 100 |  | > 100 |  | > 100 | > 100 | > 100 | > 100 | > 100 | > 100 | > 100 | > 100 | > 100 | > 100 | 73.4 | > 100 | > 100 |  |  |
| CCOC(=O)C1(C#N)C(c2ccccc2)CC(O)(c2ccc([N+](=O)[O-])cc2)C(C(=O)c2ccc([N+](=O)[O-])cc2)C1c1ccccc1 (stereo not given) | > 100 |  | > 100 | > 100 |  | > 100 | > 100 | > 100 | > 100 | > 100 | > 100 | > 100 |  | > 100 | > 100 |  | > 100 |  |  |
| C=C(C)CNC(=S)N(N)c1ccc(OC)cc1 | > 100 |  | > 100 | > 100 | > 100 | > 100 | > 100 | > 100 | > 100 | > 100 |  | > 100 | > 100 | > 100 | > 100 | > 100 | > 100 |  |  |
| CC(=O)NC(CCCCN(Cc1ccccc1)C(=O)NCCCl)C(=O)NCc1ccccc1 (stereo not given) | > 100 |  | > 100 | > 100 |  | > 100 | > 100 | > 100 | > 100 | > 100 | > 100 | > 100 |  | > 100 | > 100 |  | > 100 |  |  |
| COc1c(C)c2c(c3c1c(=O)c1ccccc1n3C)C=CC(C)(C)O2 | 56.7 | 73.4 | 44.8 | 67.3 | 31.1 | 91.4 | 95.6 | 69.8 | > 100 | 45.8 | 82.9 | > 100 |  | > 100 | 30.2 |  | 37.9 |  |  |
| CC(C)(Br)C(Br)CCC(=CCBr)CBr (mixture of isomers) | 13.5 | 44.6 | 4.41 | 3.12 | 12.4 | 4.85 | 26.6 | 3.84 | 31.1 | 10.9 | 33.1 | 7.18 | 49.7 | 49.7 | 2.15 |  | 4.29 |  |  |
| CCOc1cc2ccc3c4cc(OC)c(OC)cc4cnc3c2cc1OCC | > 100 | > 100 | > 100 | > 100 | > 100 | > 100 | > 100 | > 100 | > 100 | > 100 | > 100 | > 100 |  | > 100 |  |  | > 100 |  |  |
| O=c1cc(-c2ccccc2)oc2cc(OCC(O)COc3ccc4c(=O)cc(-c5ccccc5)oc4c3)ccc12 | > 100 | > 100 | > 100 | > 100 | > 100 | 90.3 |  | 52 | 53.6 | > 100 | > 100 | > 100 |  | > 100 | > 100 |  | > 100 |  |  |
| COc1cc(C2SCC(=O)N2Cc2ccccc2)cc(OC)c1OC (stereo not given) |  |  | > 100 | > 100 | > 100 | > 100 | > 100 | > 100 | > 100 | > 100 | > 100 | > 100 | > 100 | > 100 | > 100 | > 100 | > 100 |  |  |
| Cc1ccc2nc(N/N=C/c3ccc(C)s3)cc(C)c2c1 | 32 |  | 12.3 | 18.9 | 20.4 | 35.4 | 17.3 | 11.3 | 27.2 | 21.1 | 30.9 | 29.4 | 39.2 | 26.1 |  | 47.2 | 23.3 |  |  |
| CC1=[N+]([O-])C(C)(C)N(N=O)C1(C)C | > 10 |  | > 10 | > 10 |  | > 10 | > 10 | > 10 | > 10 | > 10 | > 10 | > 10 |  | > 10 | > 10 | > 10 | > 10 |  |  |
| O=C(Nc1cc2c(=O)[nH]c3ccccc3c2oc1=O)c1cnccn1 | > 100 |  | > 100 | > 100 | > 100 |  | > 100 | > 100 | > 100 | > 100 | > 100 | > 100 |  | > 100 |  | > 100 | > 100 |  |  |
| C1=Nc2ccc(cc2)N=Cc2ccccc2OCc2cccc(n2)COc2ccccc21 | > 100 | > 100 | > 100 | > 100 | > 100 |  | > 100 | > 100 | 75.1 | > 100 | > 100 | > 100 |  | > 100 | > 100 | > 100 | > 100 |  |  |
